Read-outs that look alike come from different tables or passages of the source. Marks after values point to notes of the source that are not given here.
Experiments:
isolated rat hearts [1] = assay: Langendorff-perfused isolated rat heart: mechanical performance (RPP, HR, ±dP/dt, cardiac efficiency); settings: for decrease of cardiac efficiency (CE): at IC50 for RPP; for +dP/dt × 1000 (contraction rate) / Cardiac efficiency / −dP/dt × 1000 (relaxation rate): hearts treated at the IC50; for t 0.5, time for half-inhibition of RPP / RPP reduction from baseline: 5 μM; for heart rate (HR) reduction: perfused at 5 μM; for IC50: read-out: IC50, half-maximal inhibitory concentration for RPP (heart contractile function)
Protocol: (§1) Male Wistar rats (250–300 g) were injected with heparin (10^3 U·kg^−1, i.p.) 20 minutes prior to anesthesia with pentobarbital (100 mg·kg^−1, i.p.). When bilateral corneal reflex was absent, the heart was excised through an abdominal approach. Then, the ascending aorta was visualized and cut and the heart was placed in a cardioplegic solution. To avoid ischemia, the time between cutting the diaphragm to placing the heart in the solution was less than 60 seconds. The hearts were mounted in accordance with the Langendorff model and perfused at a constant flow (12 ml·min^−1) with a Krebs-Henseleit buffer as previously described. A latex balloon connected to a pressure transducer filled with saline solution was inserted into the left ventricle after establishing autonomous contraction. The pulmonary artery was cannulated and connected to a closed chamber using a Clark-type oxygen electrode (Yellow Springs Instruments, Yellow Springs, Ohio) to measure myocardial oxygen consumption (MVO2) in the coronary effluent. The rate of MVO2 was calculated as the difference between the concentration in the K-H buffer before (100%) and after perfusion. Data Trax software (WPI, Sarasota, Florida) was used for continuous recording of the heart rate (HR), left ventricular pressure (LVP), MVO2, and maximum positive and negative derivative of left ventricular pressure (±dP/dt). The baseline was established during 10–15 minutes of K-H perfusion. Each concentration of Cas or Doxo remained in the heart for 30 min. Hearts in the control group were perfused with K-H buffer during the whole experimental time. Rate pressure product (RPP = HR × LVP) and cardiac efficiency ([…]) were calculated as previously reported.

isolated rat hearts [2] = assay: Myocardial oxygen consumption and energetic metabolites (ATP, PCr) in perfused hearts; settings: Cas at IC50, Doxo 5 μM
Protocol: as §1
(§2) To measure the energetic metabolites ATP, phosphocreatine (PCr), and aconitase activity at the end of the perfusion protocols, samples were prepared as follows: the hearts were removed from the perfusion system by cutting the aorta and immediately flash-frozen with liquid N2, weighed, and stored at −80°C. Afterward, the hearts were homogenized in ice-cold buffer containing 250 mM sucrose, 10 mM HEPES, and 1 mM EDTA (pH 7.4). For enzymatic determination, aliquots of the homogenate were immediately frozen in liquid nitrogen and stored at −80°C. Quantification of ATP and PCr was carried out in a HPLC system with a dual-pump gradient (Waters Chromatography, Toronto, Canada) as previously described.

[3] = tested on: mitochondria isolated from Cas-treated hearts; assay: Respiratory activity of mitochondria isolated from treated hearts (Clark-type oxygen electrode); design: species or system rat; settings: for State 4 respiration: 10 mM glutamate-malate; for Respiratory control / State 3 respiration: malate/glutamate; for State 3 respiration: after 100 μM ADP; for Max. respiration: 0.08 μM CCCP
Protocol: (§3) To measure mitochondrial oxygen consumption, mitochondrial membrane potential, and Ca^2+ uptake, cytochrome c samples were prepared as follows: after perfusion, heart tissue from the left ventricle was minced and homogenized in cold mitochondrial isolation medium (in mM: 125 KCl, 1 EDTA, and 10 HEPES-HCl; pH 7.3). The mitochondrial fraction was obtained by differential centrifugation using the protease Nagarse, as previously described. Mitochondrial oxygen consumption was measured using a Clark-type oxygen electrode. The experiments were carried out in respiration assay medium containing 125 KCl, 10 HEPES-HCl, and 3 KH2PO4 (in mM) with pH 7.3. State 4 respiration was measured in the presence of 10 mM glutamate-malate, and state 3 respiration was evaluated after addition of 100 μM ADP. Maximal respiration was determined with 0.08 μM of carbonyl cyanide m-chlorophenyl hydrazine (CCCP). The mitochondrial membrane potential was measured by fluorometry using 5 μM safranine. Mitochondrial Ca^2+ uptake was determined with the metalochromic indicator, Arsenazo III, or calcium green 5N (5N-CG), using a medium containing 50 μM Arsenazo or 10 μM 5N-CG, 10 mM succinate plus rotenone (0.1 μg·ml^−1), 200 μM ADP, and 0.25 μg oligomycin A. Pulses of 10 nmol Ca^+2 were added every 3 minutes to reach a Ca^+2 release due to MPT opening. Mitochondrial cytochrome c quantification from Cas-treated hearts was performed using Western blot analysis as described previously. The blots were developed with Luminata crescendo substrate (Merck Millipore, Darmstadt, Germany) and detected with VisionWorks LS-UVP Chimio System (BioSpectrum 415 Imaging System, Cambridge, UK).

[4] = tested on: mitochondrial permeability transition pore; assay: Mitochondrial Ca2+ retention capacity (MPT opening); design: species or system rat; settings: for decrease of mitochondrial Ca2+ retention capacity: mitochondria from hearts treated at IC50, versus control
Protocol: as §3

[5] = tested on: adult rat ventricular myocytes; assay: Cardiomyocyte viability, Alamar Blue; type: cell-based; settings: 24 h treatment, read-out: LD50 (IC50) for cardiomyocyte viability
Description: (§4) Ventricular cardiomyocytes were obtained from male Wistar rats (250–300 g) by digestion with collagenase type II as previously described. Cells were washed in Tyrode solution (mM): 130 NaCl, 5.4 KCl, 0.4 NaH2PO4, 0.5 MgCl2, 25 HEPES, and 5 glucose with pH 7.4. After isolation, cells were cultivated at a density of 3.2 × 10^3 viable cells/well in 96-well plates pretreated with laminin in M-199 medium supplemented in mM with 5 taurine, 5 creatine, 2 L-carnitine, 2.5 sodium pyruvate, and penicillin-streptomycin at 100 U·ml^−1 and 100 μg·ml^−1, respectively, at 37°C, with 5% CO2 and 95% air. After incubation for three hours, varying concentrations of Cas were tested in triplicate, exposing the myocytes during 24 hours to each treatment. At the end of the incubation period, the cytotoxicity of Cas was measured using the Alamar Blue viability test (Life Technologies, Carlsbad, CA, USA). Release of cytoplasmic lactate dehydrogenase (LDH) was determined using CytoTox-ONE homogeneous membrane integrity kit (Promega Madison, WI, USA). The activity of caspases 3/7 and caspase 9 was measured in cell lysates using caspase-Glo 3/7 and caspase-Glo 9 test luminescent assay (Promega, Madison, WI, USA), respectively. The cardiomyoblast cell line H9c2 (ATCC CRL-1446) was maintained using standard procedures in DMEM supplemented with 10% fetal bovine serum prior to the oxidative stress experiments.

isolated cardiomyocytes = assay: LDH release (CytoTox-ONE); type: cell-based, rat; settings: cardiomyocytes treated at IC50 (II-gly 2 μM, Doxo 10 μM)
Description: as §4

caspases 3 and 7 = assay: Caspase-Glo 3/7 activity in cell lysates; type: cell-based, rat; settings: cardiomyocytes treated at IC50, compared to Doxo or the control
Description: as §4

caspase 9 = assay: Caspase-Glo 9 activity in cell lysates; type: cell-based, rat; settings: cardiomyocytes treated at IC50
Description: as §4

cytochrome c = assay: Mitochondrial cytochrome c content by Western blot; design: species or system rat; settings: heart mitochondria after 30 min perfusion at IC50
Protocol: as §3, with “Mitochondrial cytochrome c quantification from Cas-treated hearts was performed using Western blot analysis as described previously. The blots were developed with Luminata crescendo substrate (Merck Millipore, Darmstadt, Germany) and detected with VisionWorks LS-UVP Chimio System (BioSpectrum 415 Imaging System, Cambridge, UK).” left out

[6] = tested on: mitochondria isolated from treated hearts; assay: Mitochondrial membrane potential (safranine fluorometry); design: species or system rat
Protocol: as §3, with “Mitochondrial cytochrome c quantification from Cas-treated hearts was performed using Western blot analysis as described previously. The blots were developed with Luminata crescendo substrate (Merck Millipore, Darmstadt, Germany) and detected with VisionWorks LS-UVP Chimio System (BioSpectrum 415 Imaging System, Cambridge, UK).” left out

H9c2 cells = assay: Mitochondrial anion superoxide production, MitoSOX flow cytometry; type: cell-based; settings: for increase in MitoSOX mean intensity (anion superoxide production): H9c2, acute, Antimycin A 10 μg/mL, Doxo 5 μM
Protocol: (§5) Thiol groups in the adenine nucleotide translocase were measured by eosin 5-maleimide interaction (EMA) with cysteine residues susceptible to oxidative stress or oxidizing agents [21] and followed by SDS/PAGE electrophoresis. […] Experiments for anion superoxide production were performed in intact cardiomyoblasts using the fluorescent probe MitoSOX (Molecular Probes) in the flow cytometer. H9c2 cells were loaded with MitoSOX during 15 min at 37°C with a cell density of 100,000 cells/mL (final concentration of MitoSOX 5 μM). Afterwards, the cells were subjected to Cas III-Ea treatment (4 or 20 μM); DOXO (5 μM) and Antimycin A (10 μg/mL) were used as positive controls. Finally, the cells were washed and analyzed on a FACSCanto II (BD Biosciences). FACS data was analyzed using FlowJo version 10.0 (Tree Star).

[7] = biological target: T1, adenine nucleotide translocase (Rattus norvegicus, UniProt Q05962); assay: Thiol groups of adenine nucleotide translocase (eosin 5-maleimide); settings: mitochondria from hearts treated at IC50
T1 construct: adenine nucleotide translocase from mitochondria isolated from Cas-treated hearts; from tissue; host or cells: mitochondria isolated from Casiopeina-perfused rat hearts
T1 sequence (Q05962 1-298): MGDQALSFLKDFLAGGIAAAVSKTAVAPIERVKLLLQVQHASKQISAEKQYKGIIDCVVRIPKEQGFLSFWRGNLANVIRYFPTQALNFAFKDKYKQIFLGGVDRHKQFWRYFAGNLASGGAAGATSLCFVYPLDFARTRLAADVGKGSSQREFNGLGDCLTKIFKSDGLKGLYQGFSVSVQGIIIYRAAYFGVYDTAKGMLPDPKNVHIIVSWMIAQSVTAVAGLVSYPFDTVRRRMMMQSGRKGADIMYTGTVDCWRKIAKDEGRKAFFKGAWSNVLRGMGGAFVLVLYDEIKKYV
Protocol: as §5

aconitase = assay: Mitochondrial aconitase activity in heart homogenates; settings: ex vivo heart, Cas at IC50, Doxo 5 μM
Protocol: as §2

subcutaneous tumors = settings: nude mice ref 30; cited from earlier work
[8] = isolated rat heart, at 30 min perfusion
[9] = mitochondria from treated hearts, CsA 0.5 μM added in vitro
[10] = mitochondria from CsA-III-Ea-treated hearts
[11] = mitochondria from hearts perfused with 10 μM III-Ea alone

| Structure (SMILES) | decrease of cardiac efficiency (CE) (isolated rat hearts [1]) | +dP/dt × 1000 (contraction rate) (isolated rat hearts [1]) | Cardiac efficiency (isolated rat hearts [1]) | −dP/dt × 1000 (relaxation rate) (isolated rat hearts [1]) | t 0.5, time for half-inhibition of RPP (isolated rat hearts [1]; isolated rat heart) | heart rate (HR) reduction (isolated rat hearts [1]) | IC50 (isolated rat hearts [1]; [8]) | State 4 respiration [3] | Respiratory control [3] | State 3 respiration [3] | decrease of mitochondrial Ca2+ retention capacity [4] | protective effect of CsA on Ca2+ retention capacity [4, 9] | IC50 [5] | increase in LDH release compared to the control (isolated cardiomyocytes) | additional MVO2 to generate the same contractile force compared to control hearts (RPP/MVO2 ratio) (isolated rat hearts [2]) | change in MVO2 (isolated rat hearts [2]) | decrease in ATP content (isolated rat hearts [2]) | Max. respiration [3] | increase in MitoSOX mean intensity (anion superoxide production) (H9c2 cells) | also measured |
| --- | --- | --- | --- | --- | --- | --- | --- | --- | --- | --- | --- | --- | --- | --- | --- | --- | --- | --- | --- | --- |
| Cc1ccnc2c1ccc1c(C)ccnc12.NCC(=O)[O-].O.O.O=[N+]([O-])[O-].[Cu+2] [Cas II-gly, Aqua(4,7-dimethyl-1,10-phenanthroline)(glycinate)copper(II)nitrate] | 23% | 2.0 ± 0.13^∗ mmHg·s^−1 | 4.8 ± 0.81 RPP · MVO2 ^−1 | −0.7 ± 0.09^∗ mmHg·s^−1 | 29 ± 1.0^d min | not affected | 5.5 ± 0.5 µM | 13.0 ± 5.0 nmol O min^−1·mg^−1 | 1.6 ± 0.3^∗ | 20.2 ± 7.3^∗ nmol O min^−1·mg^−1 | 46.5% | 60% | 2 ± 0.5 µM | 3.5 fold |  |  |  |  |  | PCr/ATP ratio (isolated rat hearts [2]): augmented; decrease in state 3 respiration rate ([3]; versus control): 77%; reduction in maximal respiration ([3]; versus control): 82%; increase in activity of caspases 3 and 7 (caspases 3 and 7): ~ 4 fold; increase in caspase 9 activity (caspase 9): 1.7 fold; mitochondrial cytochrome c content (cytochrome c): reduction of cytochrome c |
| CC(=O)C=C(C)[O-].Cc1ccnc2c1ccc1c(C)ccnc12.O.O.O=[N+]([O-])[O-].[Cu+2] [Cas III-Ea, Aqua(4,7-dimethyl-1,10-phenanthroline)(acetylacetonate)copper(II)nitrate] | 47% | 2.4 ± 0.23^∗ mmHg·s^−1 | 3.3 ± 0.2^∗ RPP · MVO2 ^−1 | −0.8 ± 0.13^∗ mmHg·s^−1 | 21 ± 5.0^d min | not affected | 1.3 ± 0.2 µM | 24.5 ± 5.4 nmol O min^−1·mg^−1 | 1.5 ± 0.2^∗ | 37.3 ± 2.7^∗ nmol O min^−1·mg^−1 | 50.5% |  | 2 ± 0.4 µM |  | 1.47 fold | no changes | 56% | 48.3 ± 5.7^∗ nmol O min^−1·mg^−1 |  | t 0.5 of decline of contractility (RPP) (isolated rat hearts [1]; 1 μM CsA perfused 10 min, then 10 μM III-Ea): 11.98 min; RPP reduction from baseline (isolated rat hearts [1]; at 20 min): 48%; RPP reduction from baseline (isolated rat hearts [1]; at 30 min): 97%; t 0.5 of decline of contractility (RPP) (isolated rat hearts [1]; 10 μM III-Ea alone): 9.65 min; more calcium tolerated than mitochondria from III-Ea hearts [4, 10]: 69%; calcium retention capacity ([4]; mitochondria from CsA-III-Ea-treated hearts (1 μM CsA before 10 μM III-Ea)): 226 ± 13 nmol/mg; calcium retention capacity [4, 11]: 133 ± 14 nmol/mg; delay in the opening of MPT in the presence of CsA [4, 9]: 1.8 fold; mitochondrial membrane potential after addition of 10 μM Ca2+ [6, 10]: remained polarized; mitochondrial membrane potential after addition of 10 μM Ca2+ [6, 11]: depolarization; change in anion superoxide production (MitoSOX) (H9c2 cells; H9c2 intact cells, 4 or 20 μM): no change; oxidation state of adenine nucleotide translocase thiol groups [7]: twofold increase |
| CCCCCC[C@H]1C(=O)O[C@H](C)[C@H](NC(=O)c2cccc(NC=O)c2O)C(=O)O[C@@H](C)[C@@H]1OC(=O)CC(C)C [Antimycin A] |  |  |  |  |  |  |  |  |  |  |  |  |  |  |  |  |  |  | 9 fold |  |
| COc1cccc2c1C(=O)c1c(O)c3c(c(O)c1C2=O)C[C@@](O)(C(=O)CO)C[C@@H]3O[C@H]1C[C@H](N)[C@H](O)[C@H](C)O1 [Doxo, Doxorubicin, reference compound] | 55% | 2.1 ± 0.23^∗ mmHg·s^−1 | 2.8 ± 0.1^∗ RPP · MVO2 ^−1 | −0.8 ± 0.18^∗ mmHg·s^−1 | 18.6 ± 4.0^d min | 24% |  | 18 ± 2.0 nmol O min^−1·mg^−1 | 1 ± 0.3^∗ | 25 ± 8.8^∗ nmol O min^−1·mg^−1 |  | 51% |  | 4.7 fold | 1.8 fold | no changes | 74% | 25 ± 15.1^∗ nmol O min^−1·mg^−1 | 4 fold | IC50 (isolated rat hearts [1]; Rattus norvegicus, 0.5 h): 5 ± 0.3 µM; PCr levels (isolated rat hearts [2]): decreased; IC50 ([5]; Rattus norvegicus, Ventricular myocyte): 10 ± 0.5 µM; aconitase activity (aconitase): decreased; reduction of the volume of subcutaneous tumors (subcutaneous tumors): 20% |

— paper PMC5889877, “Ex Vivo Cardiotoxicity of Antineoplastic Casiopeinas Is Mediated through Energetic Dysfunction and Triggered Mitochondrial-Dependent Apoptosis” (Oxidative Medicine and Cellular Longevity, 2018)
